What all share (assay type): cell-based
One experiment relates to S. pneumoniae UC9912. In words: MIC by agar dilution, S. pneumoniae UC9912. As to conditions: Streptococcus pneumoniae. The text has this:
(§1) The in vitro activity of compounds of the subject invention may be assessed by standard testing procedures such as the determination of minimum inhibitory concentration (MIC) by agar dilution as described in “Approved Standard. Methods for Dilution Antimicrobial Susceptibility Tests for Bacteria that Grow Aerobically,” 3rd ed., published 1993 by the National Committee for Clinical Laboratory standards, Villanova, Pa., USA.
(§2) The in vitro MICs of test compounds may be determined by a standard agar dilution method. A stock drug solution of each analog is prepared in a preferred solvent, usually DMSO:H2O (1:3). Serial 2-fold dilutions of each sample are made using 1.0 ml aliquots of sterile distilled water. To each 1.0 ml aliquot of drug is added 9 ml of molten Mueller Hinton agar medium. The drug-supplemented agar is mixed, poured into 15×100 mm petri dishes, and allowed to solidify and dry prior to inoculation.
(§3) Vials of each of the test organisms are maintained frozen in the vapor phase of a liquid nitrogen freezer. Test cultures are grown overnight at 35° C. on the medium appropriate for the organism. Colonies are harvested with a sterile swab, and cell suspensions are prepared in Trypticase Soy broth (TSB) to equal the turbidity of a 0.5 McFarland standard. A 1:20 dilution of each suspension is made in TSB. The plates containing the drug supplemented agar are inoculated with a 0.001 ml drop of the cell suspension using a Steers replicator, yielding approximately 10^4 to 10^5 cells per spot. The plates are incubated overnight at 35° C.
(§4) Following incubation the Minimum Inhibitory Concentration (MIC μg/ml), the lowest concentration of drug that inhibits visible growth of the organism, is read and recorded.
(§5) The in vitro MICs of test compounds were determined by a standard agar dilution method. A stock drug solution of each analog was prepared in the preferred solvent, usually DMSO:H2O (1:3). Serial 2-fold dilutions of each sample are made using 1.0 ml aliquots of sterile distilled water. To each 1.0 ml aliquot of drug was added 9 ml of molten Mueller Hinton agar medium The drug-supplemented agar was mixed, poured into 15×100 mm petri dishes, and allowed to soldify and dry prior to inoculation.
(§6) Vials of each of the test organisms are maintained frozen in the vapor phase of a liquid nitrogen freezer. Test cultures are grown overnight at 35° C. on the medium appropriate for the organism. Colonies are harvested with a sterile swab, and cell suspensions are prepared in Trypticase Soy broth (TSB) to equal the turbidity of a 0.5 McFarland standard. A 1:20 dilution of each suspension was made in TSB. The plates containing the drug supplemented agar are inoculated with a 0.001 ml drop of the cell suspension using a Steers replicator, yielding approximately 10^4 to 10^5 cells per spot. The plates are incubated overnight at 35° C. Following incubation the Minimum Inhibitory Concentration (MIC μg/ml), the lowest concentration of drug that inhibits visible growth of the organism, was read and recorded.
Background: Agar dilution tests growth on a series of plates holding different concentrations.

The test system of the next experiment is H. influenzae 30063. In words: MIC by agar dilution, H. influenzae 30063.
From the text: as §1, §2, §3, §4, §5, §6

For the next experiment, the system named is S. aureus UC9213. Put plainly: MIC by agar dilution, S. aureus UC9213. The settings on record: Staphylococcus aureus.
From the text: as §1, §2, §3, §4, §5, §6

Where [1] appears, read: Haemophilus influenzae, 30063, read-out: MIC against H. influenza (30063).
[2] abbreviates: UC9912, agar dilution, Mueller Hinton agar, overnight at 35° C., read-out: S. pneumoniae UC9912 MIC.
[3] abbreviates: UC9213, agar dilution, Mueller Hinton agar, overnight at 35° C., read-out: S. aureus UC9213 MIC.
Where [4] appears, read: Haemophilus influenzae, 30063, agar dilution, Mueller Hinton agar, overnight at 35° C., read-out: H. influenzae 30063 MIC.

Molecules are shown by their SMILES. In brackets after ≈: the same amount, converted by molar mass. Where two headings read alike, the source gives them in different places.

Take `CC(=O)NC[C@H]1CN(c2ccc(N3CCOCC3)c(F)c2)C(=O)O1` [linezolid, reference compound]: the MIC amounted to 1 µg/mL (≈ 2.96 µM) in the experiment with S. pneumoniae UC9912 (UC9912, read-out: MIC against S. pneumoniae (UC 9912)) and 16 µg/mL (≈ 47.4 µM) in the experiment on H. influenzae 30063 (setting [1]).

Consider `CCN(CC)C(=O)COC(=O)[C@H]1[C@@H]2CN(c3c(F)cc(N4C[C@H](CNC(=O)C(Cl)Cl)OC4=O)cc3F)C[C@@H]21` [Example 13, 2-(diethylamino)-2-oxoethyl exo-(1R,5S)-3-[4-((5S)-5-{[(dichloroacetyl)amino]methyl}-2-oxo-1,3-oxazolidin-3-yl)-2,6-difluorophenyl]-3-azabicyclo[3.1.0]hexane-6-carboxylate], for which the MIC with H. influenzae 30063 (setting [1]) is over 64 µg/mL.

Take `CC(=O)NC[C@H]1CN(c2ccc(N3CC4C(C3)N4C(C)=O)c(F)c2)C(=O)O1` (stereo partly drawn) [Example 50, N-({(5S)-3-[4-(6-acetyl-3,6-diazabicyclo[3.1.0]hex-3-yl)-3-fluorophenyl]-2-oxo-1,3-oxazolidin-5-yl]methyl)acetamide]: the figures for the MIC in the experiment on S. pneumoniae UC9912 (setting [2]), in the experiment on S. aureus UC9213 (setting [3]) and with H. influenzae 30063 (setting [4]) were 2 µg/mL (≈ 5.31 µM), 8 µg/mL (≈ 21.3 µM) and 64 µg/mL (≈ 170 µM), respectively.

With `CC(=O)NC[C@H]1CN(c2ccc(N3CC4C(C3)N4C(=O)COC(C)=O)c(F)c2)C(=O)O1` (stereo partly drawn) [Example 52, 2-[3-(4-(5S)-5-[(acetylamino)methyl]-2-oxo-1,3-oxazolidin-3-yl}2-fluorophenyl)-3,6-diazabicyclo[3.1.0]hex-6-yl]-2-oxoethyl acetate], the MIC with S. pneumoniae UC9912 (setting [2]) stood at 1 µg/mL; in the experiment with S. aureus UC9213 (setting [3]), 1 µg/mL; in the experiment on H. influenzae 30063 (setting [4]), 32 µg/mL.

With `COCC(=O)N1C2CN(c3ccc(N4C[C@H](CNC(C)=O)OC4=O)cc3F)CC21` (stereo partly drawn) [Example 51, N-({(5S)-3-[4-(6-methoxyacetyl-3,6-diazabicyclo[3.1.0]hex-3-yl)-3-fluorophenyl]-2-oxo-1,3-oxazolidin-5-yl}methyl)acetamide], the MIC with S. pneumoniae UC9912 (setting [2]) worked out at 2 µg/mL (≈ 4.92 µM); in the experiment on S. aureus UC9213 (setting [3]), 8 µg/mL (≈ 19.7 µM); in the experiment with H. influenzae 30063 (setting [4]), 32 µg/mL (≈ 78.7 µM).

Regarding `CC(=O)NC[C@H]1CN(c2cc(F)c(N3C[C@@H]4[C@H](C3)[C@H]4C(=O)N(C)C)c(F)c2)C(=O)O1` [Example 3], the MIC with H. influenzae 30063 (setting [1]) is over 64 µg/mL.

For `CCN(CC)C(=O)COC(=O)[C@H]1[C@@H]2CN(c3c(F)cc(N4C[C@H](CNC(=O)C(F)F)OC4=O)cc3F)C[C@@H]21` [Example 17], in the experiment on H. influenzae 30063 (setting [1]), the MIC was over 64 µg/mL.

With `CC(=O)NC[C@H]1CN(c2cc(F)c(N3C[C@@H]4[C@H](C3)[C@H]4NC(=O)Nc3ccccc3)c(F)c2)C(=O)O1` [Example 28, N-{[(5S)-3-(4-{exo-(1R,5S)-6-[(anilinocarbonyl)amino]-3-azabicyclo[3.1.0]hex-3-yl}-3,5-difluorophenyl)-2-oxo-1,3-oxazolidin-5-yl]methyl}acetamide], the MIC with H. influenzae 30063 (setting [1]) was over 64 µg/mL.

`COC(=O)[C@H]1[C@@H]2CN(c3c(F)cc(N4C[C@H](CNC(=O)C(F)F)OC4=O)cc3F)C[C@@H]21` [Example 16, methyl exo-(1R,5S)-3-[4-((5S)-5-{[(difluoroacetyl)amino]methyl}-2-oxo-1,3-oxazolidin-3-yl)-2,6-difluorophenyl]-3-azabicyclo[3.1.0]hexane-6-carboxylate]: the MIC in the experiment with H. influenzae 30063 (setting [1]) was over 64 µg/mL.

Take `CC(=O)NC[C@H]1CN(c2cc(F)c(N3CC4OC4C3)c(F)c2)C(=O)O1` (stereo partly shown) [Example 40]: the figures for the MIC in the experiment on S. pneumoniae UC9912 (setting [2]), in the experiment with S. aureus UC9213 (setting [3]) and in the experiment with H. influenzae 30063 (setting [4]) were 0.5 µg/mL (≈ 1.42 µM), 1 µg/mL (≈ 2.83 µM) and 8 µg/mL (≈ 22.6 µM), respectively.

For the compound `CC(=O)NC[C@H]1CN(c2ccc(N3CC4NC4C3)c(F)c2)C(=O)O1` (stereo partly shown) [Example 49], the MIC with S. pneumoniae UC9912 (UC9912, read-out: S. pneumoniae UC9912 MIC, μg/mL) stood at 0.5 µg/mL (≈ 1.5 µM); in the experiment on S. aureus UC9213 (UC9213, read-out: S. aureus UC9213 MIC, μg/mL), 4 µg/mL (≈ 12 µM); in the experiment on H. influenzae 30063 (Haemophilus influenzae, 30063, read-out: H. influenzae 30063 MIC, μg/mL), 8 µg/mL (≈ 23.9 µM).

For the compound `CCC(=O)NC[C@H]1CN(c2cc(F)c(N3CC4OC4C3)c(F)c2)C(=O)O1` (stereo partly drawn) [Example 41, N-({(5S)-3-[3,5-difluoro-4-(6-oxa-3-azabicyclo[3.1.0]hex-3-yl)phenyl]-2-oxo-1,3-oxazolidin-5-yl}methyl)propanamide], the MIC in the experiment on S. pneumoniae UC9912 (setting [2]) amounted to 0.5 µg/mL (≈ 1.36 µM); in the experiment on S. aureus UC9213 (setting [3]) it was 2 µg/mL (≈ 5.44 µM); with H. influenzae 30063 (setting [4]), 16 µg/mL (≈ 43.6 µM).

The values above are taken from patent US6875784B2, “Antimibicrobial [3.1.0.] bicyclic oxazolidinone derivatives” (priority 2002, dated 2005).
